{"source": "paper PMC2784146", "about": "(Nature, 2009)", "key": {"[1]": {"target": "T1, α2A adrenergic receptor (Homo sapiens, UniProt P08913)", "T1 sequence (P08913 1-465)": "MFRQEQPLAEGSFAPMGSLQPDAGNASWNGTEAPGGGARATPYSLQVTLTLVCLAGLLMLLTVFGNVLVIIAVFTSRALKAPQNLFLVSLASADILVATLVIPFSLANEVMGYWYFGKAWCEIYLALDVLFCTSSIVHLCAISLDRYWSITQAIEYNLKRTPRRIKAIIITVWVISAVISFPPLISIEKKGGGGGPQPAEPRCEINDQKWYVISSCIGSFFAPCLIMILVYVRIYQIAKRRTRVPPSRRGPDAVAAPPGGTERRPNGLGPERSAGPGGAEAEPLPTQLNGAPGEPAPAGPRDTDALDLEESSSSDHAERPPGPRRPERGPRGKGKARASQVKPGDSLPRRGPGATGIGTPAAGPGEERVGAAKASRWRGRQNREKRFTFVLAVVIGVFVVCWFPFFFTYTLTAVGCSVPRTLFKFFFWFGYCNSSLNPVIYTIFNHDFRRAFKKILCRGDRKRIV", "test": "Radioligand competition binding, α2A"}, "[2]": {"tested_on": "adrenergic α2", "settings": "ref Supplementary Table 3; cited from earlier work"}, "[3]": {"target": "5-HT1D receptor (Homo sapiens, UniProt P28221)", "sequence (P28221 whole entry)": "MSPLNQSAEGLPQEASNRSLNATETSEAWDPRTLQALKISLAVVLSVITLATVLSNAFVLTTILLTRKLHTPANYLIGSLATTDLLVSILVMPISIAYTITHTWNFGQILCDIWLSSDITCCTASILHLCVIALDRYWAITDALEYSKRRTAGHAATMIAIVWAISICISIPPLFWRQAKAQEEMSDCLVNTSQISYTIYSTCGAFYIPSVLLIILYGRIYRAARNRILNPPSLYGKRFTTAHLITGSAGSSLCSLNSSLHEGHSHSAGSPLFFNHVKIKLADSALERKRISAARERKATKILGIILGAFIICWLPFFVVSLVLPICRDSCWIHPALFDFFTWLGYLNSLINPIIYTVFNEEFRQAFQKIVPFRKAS", "settings": "ref Supplementary Table 3; cited from earlier work"}, "[4]": {"tested_on": "carbonic anhydrase II", "settings": "ref WOMBAT (26); cited from earlier work"}, "[5]": {"target": "human 5-HT2A receptor (Homo sapiens, UniProt P28223)", "sequence (P28223 whole entry)": "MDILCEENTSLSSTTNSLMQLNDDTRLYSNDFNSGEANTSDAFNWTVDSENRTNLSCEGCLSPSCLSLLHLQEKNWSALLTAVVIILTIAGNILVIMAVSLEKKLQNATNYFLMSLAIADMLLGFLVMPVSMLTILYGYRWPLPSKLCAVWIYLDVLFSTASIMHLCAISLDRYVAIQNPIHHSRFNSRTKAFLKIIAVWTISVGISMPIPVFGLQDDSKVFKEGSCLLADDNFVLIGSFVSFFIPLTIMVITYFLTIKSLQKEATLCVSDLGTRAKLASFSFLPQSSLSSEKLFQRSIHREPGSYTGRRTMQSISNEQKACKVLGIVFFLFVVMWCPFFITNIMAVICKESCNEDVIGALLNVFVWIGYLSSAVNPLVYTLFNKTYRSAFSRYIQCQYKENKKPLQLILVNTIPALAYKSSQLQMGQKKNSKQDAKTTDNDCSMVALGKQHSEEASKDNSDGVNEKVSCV", "test": "cell-based"}, "[6]": {"target": "σ1 receptor", "settings": "read-out: Kd for σ1; cited from earlier work"}, "[7]": {"target": "μ Opioid receptor (Homo sapiens, UniProt P35372)", "sequence (P35372 whole entry, species assumed)": "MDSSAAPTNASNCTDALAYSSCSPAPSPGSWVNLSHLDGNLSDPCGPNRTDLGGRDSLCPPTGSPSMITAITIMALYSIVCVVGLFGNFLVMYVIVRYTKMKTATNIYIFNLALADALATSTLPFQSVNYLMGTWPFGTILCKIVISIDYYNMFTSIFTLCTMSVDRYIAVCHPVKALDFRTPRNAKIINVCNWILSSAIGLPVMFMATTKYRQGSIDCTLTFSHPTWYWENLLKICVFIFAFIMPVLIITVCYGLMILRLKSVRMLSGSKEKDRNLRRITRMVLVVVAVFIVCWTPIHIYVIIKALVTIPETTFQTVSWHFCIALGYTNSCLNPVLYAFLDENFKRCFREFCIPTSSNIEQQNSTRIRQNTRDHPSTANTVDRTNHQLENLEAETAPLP", "test": "biochemical", "format": "binding"}, "[8]": {"target": "Histamine H4 receptor (Homo sapiens, UniProt Q9H3N8)", "sequence (Q9H3N8 whole entry, species assumed)": "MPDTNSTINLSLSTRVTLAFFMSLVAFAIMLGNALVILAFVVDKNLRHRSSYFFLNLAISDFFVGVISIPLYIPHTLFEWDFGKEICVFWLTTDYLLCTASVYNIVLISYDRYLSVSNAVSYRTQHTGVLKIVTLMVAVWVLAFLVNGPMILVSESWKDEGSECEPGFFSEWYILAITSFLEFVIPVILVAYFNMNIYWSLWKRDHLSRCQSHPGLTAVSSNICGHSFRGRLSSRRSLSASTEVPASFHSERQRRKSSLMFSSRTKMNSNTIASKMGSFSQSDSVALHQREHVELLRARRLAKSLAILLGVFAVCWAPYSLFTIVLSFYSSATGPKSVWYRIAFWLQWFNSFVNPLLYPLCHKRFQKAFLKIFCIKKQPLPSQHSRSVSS", "test": "biochemical", "format": "binding"}, "[9]": {"settings": "average; cited from earlier work"}, "[10]": {"tested_on": "hERG channel", "settings": "cited from earlier work"}}}
{"smiles": "COc1cc2c(cc1OC)C1CC(=O)C(CC(C)C)CN1CC2", "note": "(stereo not shown) [Xenazine]", "values": [{"measurement": "Ki", "setting": "[1]", "value": 0.96, "unit": "µM"}]}
{"smiles": "CCN(CC)C(=O)N[C@H]1C=C2c3cccc4[nH]cc(c34)C[C@H]2N(C)C1", "note": "[Revanil, lisuride]", "values": [{"measurement": "reported to bind adrenergic α2 at", "setting": "[2]", "value": 0.055, "unit": "nM"}]}
{"smiles": "CCCN1C[C@H](CSC)C[C@@H]2c3cccc4[nH]cc(c34)C[C@H]21", "note": "[Permax, pergolide]", "values": [{"measurement": "reported to bind the 5-HT1D receptor at", "setting": "[3]", "value": 13, "unit": "nM"}]}
{"smiles": "CCN[C@H]1CN(CCCOC)S(=O)(=O)c2sc(S(N)(=O)=O)cc21", "note": "[Azopt, brinzolamide]", "values": [{"measurement": "binds carbonic anhydrase II at", "setting": "[4]", "value": 3, "unit": "nM"}]}
{"smiles": "CN(C)CCc1c[nH]c2ccccc12", "note": "[DMT, N,N-dimethyltryptamine]", "values": [{"measurement": "EC50", "setting": "[5]", "value": "0.118 ± 0.029", "unit": "µM"}, {"measurement": "Kd", "setting": "[6]", "value": 14.8, "unit": "µM"}]}
{"smiles": "CC(C(O)c1ccc(O)cc1)N1CCC(Cc2ccccc2)CC1", "note": "(stereo not shown) [Vadilex, Ifenprodil]", "values": [{"measurement": "Ki", "setting": "[7]", "value": 1.4, "unit": "µM"}]}
{"smiles": "CC(C)Nc1cccnc1N1CCN(C(=O)c2cc3cc(NS(C)(=O)=O)ccc3[nH]2)CC1", "note": "[Rescriptor, Delavirdine]", "values": [{"measurement": "Ki", "setting": "[8]", "value": 5.3, "unit": "µM"}, {"measurement": "steady-state plasma concentration Cmin", "setting": "[9]", "value": 15, "unit": "µM"}]}
{"smiles": "O=c1[nH]c2ccccc2n1CCCN1CCC(n2c(=O)[nH]c3cc(Cl)ccc32)CC1", "note": "[Motilium]", "values": [{"measurement": "IC50", "setting": "[10]", "value": 5, "unit": "µM"}]}
